Columns and labels:
[1] = system: CYPIR (Rice Flatsedge); experiment: Postemergence weed control under flooded paddy conditions; format: in vivo, Cyperus iria; conditions: Rate 0.2500 kg/ha, postemergence weeds, rated 3 to 4 weeks after treatment
Procedure, shortened: (§1)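 Containers holding 3–5 cm weeds and rice at 1.5–2.5 leaves are flooded to 1.5–3 cm above soil. Compound in 50/50 v/v aqueous/acetone is then added directly to the water, about 0.0313–0.500 kg/ha. Plants are kept in the greenhouse and rated 0–9 visually at 3–4 weeks.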

[2] = system: GALAP (Galium); experiment: Postemergence herbicidal evaluation; format: in vivo, Galium aparine
Procedure, shortened: (§2)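 ~2-wk seedlings; postemergence spray, 40 psi; vehicle 1:1 acetone:water + 0.5% Tween 20; rate ≈0.0156–0.500 kg/ha; greenhouse hold; scored 4–5 wk after treatment, 0–9 scale vs control; repeat tests averaged.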

[3] = system: ORYSAT (Rice, Tebonnet); experiment: Postemergence herbicidal evaluation; format: in vivo, Oryza sativa, (L.) Tebonnet
Procedure, shortened: as §2

[4] = system: MOOVA (Monochoria); experiment: Preemergence weed control under flooded paddy conditions; format: in vivo, Monochoria vaginalis; conditions: 0.2500 kg/ha, rated 3-4 weeks after treatment
Procedure, shortened: (§3)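 Flooded-pot preemergence screen with silt loam and seeds in the upper 0.5 cm. Dose about 0.0313 to 0.500 kg/ha, delivered into flood water; visual 0-9 score after 3 to 4 weeks.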

[5] = system: ORYSAT (Rice, Tebonnet); experiment: Preemergence herbicidal evaluation; format: in vivo, Oryza sativa, (L.) Tebonnet; conditions: rated 4-5 weeks after treatment
Procedure, shortened: (§4)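 Rating at 4–5 wk post-spray on a 0–9 visual scale vs control. Application: aqueous acetone, ~0.0156–0.500 kg/ha, to soil surface after seeding, preemergence.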

[6] = system: CHEAL (Lambsquarters, Common); experiment: Postemergence herbicidal evaluation; format: in vivo, Chenopodium album
Procedure, shortened: as §2

[7] = system: SETVI (Foxtail, Green); experiment: Preemergence herbicidal evaluation; format: in vivo, Setaria viridis; conditions: rated 4-5 weeks after treatment
Procedure, shortened: as §4

[8] = system: CYPSE (Flatsedge); experiment: Preemergence weed control under flooded paddy conditions; format: in vivo, Cyperus serotinus; conditions: 0.2500 kg/ha, rated 3-4 weeks after treatment
Procedure, shortened: as §3

[9] = system: ZEAMX (Corn, Field); experiment: Postemergence herbicidal evaluation; format: in vivo, Zea mays
Procedure, shortened: as §2

[10] = system: CYPSE (Flatsedge); experiment: Postemergence weed control under flooded paddy conditions; format: in vivo, Cyperus serotinus; conditions: Rate 0.2500 kg/ha, postemergence weeds, rated 3 to 4 weeks after treatment
Procedure, shortened: as §1

[11] = system: CASOB (Sicklepod); experiment: Postemergence herbicidal evaluation; format: in vivo, Cassia obtusifolia
Procedure, shortened: as §2

[12] = system: GLXMAW (Soybean, Williams); experiment: Preemergence herbicidal evaluation; format: in vivo, Glycine max, (L.) Merr. cv Williams; conditions: rated 4-5 weeks after treatment
Procedure, shortened: as §4

[13] = system: SAGPY (Arrowhead (Pygmaea)); experiment: Postemergence weed control under flooded paddy conditions; format: in vivo, Sagittaria pygmaea; conditions: Rate 0.2500 kg/ha, postemergence weeds, rated 3 to 4 weeks after treatment
Procedure, shortened: as §1

[14] = system: AMBEL (Ragweed, Common); experiment: Preemergence herbicidal evaluation; format: in vivo, Ambrosia artemisifolia; conditions: rated 4-5 weeks after treatment
Procedure, shortened: as §4

Structure (SMILES): Cn1c(C(F)(F)F)cc(=O)n(-c2cc(/N=C3/SC(CC(=O)O)C(=O)N3CC(=O)O)c(Cl)cc2F)c1=O (stereo not shown) [Compound 61, 2-{{2-Chloro-5-[3,6-dihydro-3-methyl-2,6-dioxo-4-(trifluoromethyl)-1(2H)-pyrimidinyl]-4-fluorophenyl}imino}-4-oxo-3,5-thiazolidinediacetic acid]
- Herbicidal rating CYPIR [1]: 0.0
- Postemergence herbicidal rating GALAP ([2]; Rate 0.0158 kg/ha): 0.0
- Postemergence herbicidal rating GALAP ([2]; Rate 0.0315 kg/ha): 0.0
- Postemergence herbicidal rating GALAP ([2]; Rate 0.0630 kg/ha): 0.0
- Postemergence herbicidal rating ORYSAT ([3]; Rate 0.0158 kg/ha): 0.5
- Postemergence herbicidal rating ORYSAT ([3]; Rate 0.0315 kg/ha): 0.5
- Postemergence herbicidal rating ORYSAT ([3]; Rate 0.0630 kg/ha): 1.5
- MOOVA herbicidal effect rating [4]: 0.0
- Preemergence herbicidal rating ORYSAT ([5]; rate 0.1250 kg/ha): 0.0
- Preemergence herbicidal rating ORYSAT ([5]; rate 0.2500 kg/ha): 1.0
- Postemergence herbicidal rating CHEAL ([6]; Rate 0.0158 kg/ha): 0.0
- Postemergence herbicidal rating CHEAL ([6]; Rate 0.0315 kg/ha): 0.0
- Postemergence herbicidal rating CHEAL ([6]; Rate 0.0630 kg/ha): 0.0
- Preemergence herbicidal rating SETVI ([7]; rate 0.1250 kg/ha): 0.0
- Preemergence herbicidal rating SETVI ([7]; rate 0.2500 kg/ha): 1.0
- CYPSE herbicidal effect rating [8]: 0.0
- Postemergence herbicidal rating ZEAMX ([9]; Rate 0.0158 kg/ha): 2.0
- Postemergence herbicidal rating ZEAMX ([9]; Rate 0.0315 kg/ha): 2.0
- Postemergence herbicidal rating ZEAMX ([9]; Rate 0.0630 kg/ha): 3.0
- Herbicidal rating CYPSE [10]: 0.0
- Postemergence herbicidal rating CASOB ([11]; Rate 0.0158 kg/ha): 0.0
- Postemergence herbicidal rating CASOB ([11]; Rate 0.0315 kg/ha): 0.0
- Postemergence herbicidal rating CASOB ([11]; Rate 0.0630 kg/ha): 0.0
- Preemergence herbicidal rating GLXMAW ([12]; rate 0.1250 kg/ha): 0.0
- Preemergence herbicidal rating GLXMAW ([12]; rate 0.2500 kg/ha): 1.0
- Herbicidal rating SAGPY [13]: 0.0
- Preemergence herbicidal rating AMBEL ([14]; rate 0.1250 kg/ha): 0.0
- Preemergence herbicidal rating AMBEL ([14]; rate 0.2500 kg/ha): 0.0

Source: patent US20020137929A1, “1 - (3-heterocyclylphenyl) isothiourea, -isourea, -guanidine and -amidine herbicidal agents” (Intellectual Property Department, BASF Aktiengesellschaft, priority 1998, published 2002)
